In patent US20090099195A1 (ASTRAZENECA AB, priority 2007, published 2009):

biological target: T1, hP2X3 (human Purinergic P2X receptors subtype 3), clone B (Homo sapiens, UniProt P56373); assay: hP2X3 FLIPR calcium (Fluo-4) antagonist assay, clone B; conditions: Human P2X3 FLIPR Clone B IC50 (nM), RLE cells expressing hP2X3 clone B (NM_002559); agonist 500 nM α,β-methylene-ATP
T1 sequence (P56373 1-397): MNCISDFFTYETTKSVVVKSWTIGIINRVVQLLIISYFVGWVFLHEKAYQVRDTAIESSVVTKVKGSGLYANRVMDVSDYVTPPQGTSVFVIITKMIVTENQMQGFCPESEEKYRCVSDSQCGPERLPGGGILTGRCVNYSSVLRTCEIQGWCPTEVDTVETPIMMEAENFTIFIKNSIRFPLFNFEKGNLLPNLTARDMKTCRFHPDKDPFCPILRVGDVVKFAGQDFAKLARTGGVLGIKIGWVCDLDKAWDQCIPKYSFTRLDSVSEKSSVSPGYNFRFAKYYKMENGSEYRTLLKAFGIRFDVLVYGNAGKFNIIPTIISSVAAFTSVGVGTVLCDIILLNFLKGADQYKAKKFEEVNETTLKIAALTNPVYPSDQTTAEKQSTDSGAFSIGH

SMILES	IC50 [nM]
CC(=O)N1CCN(c2nc(N[C@H](C)c3ccc4c(c3)CCO4)c3c(n2)C(=O)N(C(C)C)C3)CC1 [Example 160, (R)-2-(4-acetylpiperazin-1-yl)-4-(1-(2,3-dihydrobenzofuran-5-yl)ethylamino)-6-isopropyl-5H-pyrrolo[3,4-d]pyrimidin-7(6H)-one]	320
CC(=O)N1CCN(c2nc(N[C@H](C)c3ccc4c(c3)CCC(C)(C)O4)c3c(n2)C(=O)N(C(C)C)C3)CC1 [Example 169, (R)-2-(4-acetylpiperazin-1-yl)-4-(1-(2,2-dimethylchroman-6-yl)ethylamino)-6-isopropyl-5H-pyrrolo[3,4-d]pyrimidin-7(6H)-one]	51
CCOc1ccccc1[C@@H](C)Nc1nc(N2CCN(C(C)=O)CC2)nc2c1CN(C(C)C)C2=O [Example 173, (R)-2-(4-acetylpiperazin-1-yl)-4-(1-(2-ethoxyphenyl)ethylamino)-6-isopropyl-5H-pyrrolo[3,4-d]pyrimidin-7(6H)-one]	5400
CCOc1cc([C@@H](C)Nc2nc(N3CCN(C(C)=O)CC3)nc3c2CN(C(C)C)C3=O)ccc1C [Example 174, (R)-2-(4-acetylpiperazin-1-yl)-4-(1-(3-ethoxy-4-methylphenyl)ethylamino)-6-isopropyl-5H-pyrrolo[3,4-d]pyrimidin-7(6H)-one]	600
CC(=O)N1CCN(c2nc(N[C@H](C)c3ccc(OC(C)C)cc3)c3c(n2)C(=O)N(C(C)C)C3)CC1 [Example 176, (R)-2-(4-acetylpiperazin-1-yl)-4-(1-(4-isopropoxyphenyl)ethylamino)-6-isopropyl-5H-pyrrolo[3,4-d]pyrimidin-7(6H)-one]	80
CC(C)N1Cc2c(NCc3cnc4ccccc4c3)nc(N3CCNC(=O)C3)nc2C1=O [Example 206, 6-isopropyl-2-(3-oxopiperazin-1-yl)-4-(quinolin-3-ylmethylamino)-5H-pyrrolo[3,4-d]pyrimidin-7(6H)-one]	3200
CC(=O)NC1CCN(c2nc(NCc3cnc4ccccc4c3)c3c(n2)C(=O)N(C(C)C)C3)C1 (stereo not drawn) [Example 207, N-(1-(6-isopropyl-7-oxo-4-(quinolin-3-ylmethylamino)-6,7-dihydro-5H-pyrrolo[3,4-d]pyrimidin-2-yl)pyrrolidin-3-yl)acetamide]	7100
CC(C)N1Cc2c(NCc3cnc4ccccc4c3)nc(N3CCC(C(N)=O)CC3)nc2C1=O [Example 209, 1-(6-isopropyl-7-oxo-4-(quinolin-3-ylmethylamino)-6,7-dihydro-5H-pyrrolo[3,4-d]pyrimidin-2-yl)piperidine-4-carboxamide]	2800
CC(C)N1Cc2c(NCc3cnc4ccccc4c3)nc(N3CCN(C)C(=O)C3)nc2C1=O [Example 210, 6-isopropyl-2-(4-methyl-3-oxopiperazin-1-yl)-4-(quinolin-3-ylmethylamino)-5H-pyrrolo[3,4-d]pyrimidin-7(6H)-one]	320
CC(C)N1Cc2c(NCc3cnc4ccccc4c3)nc(N3CCCC3CN3CCOCC3)nc2C1=O (stereo not drawn) [Example 212, 6-isopropyl-2-[2-(morpholinomethyl)pyrrolidin-1-yl]-4-(3-quinolylmethylamino)-5H-pyrrolo[3,4-d]pyrimidin-7-one]	4600
CC(C)N1Cc2c(NCc3cnc4ccccc4c3)nc(NC3CN4CCC3CC4)nc2C1=O (stereo not drawn) [Example 214, 6-isopropyl-4-(3-quinolylmethylamino)-2-(quinuclidin-3-ylamino)-5H-pyrrolo[3,4-d]pyrimidin-7-one]	2300
CC(C)N1Cc2c(NCc3cnc4ccccc4c3)nc(N3CCC(N(C)C)CC3)nc2C1=O [Example 218]	7800
CC(C)N1Cc2c(NCc3cnc4ccccc4c3)nc(NCC3CCOCC3)nc2C1=O [Example 219, 6-(1-methylethyl)-4-[(quinolin-3-ylmethyl)amino]-2-[(tetrahydro-2H-pyran-4-ylmethyl)amino]-5,6-dihydro-7H-pyrrolo[3,4-d]pyrimidin-7-one]	8400

Second part, the compound after the results:

IC50 [nM]	SMILES
720	CC(=O)N1CCN(c2nc(N[C@H](C)c3ccc(C(C)(C)C#N)cc3)c3c(n2)C(=O)N(C(C)C)C3)CC1 [Example 161, (R)-2-(4-(1-(2-(4-acetylpiperazin-1-yl)-6-isopropyl-7-oxo-6,7-dihydro-5H-pyrrolo[3,4-d]pyrimidin-4-ylamino)ethyl)phenyl)-2-methylpropanenitrile]
950	CCOc1ccc(CN(CC2CC2)c2nc(N3CCN(C(C)=O)CC3)nc3c2CN(C(C)C)C3=O)cc1 [Example 162, 2-(4-acetylpiperazin-1-yl)-4-((cyclopropylmethyl)(4-ethoxybenzyl)amino)-6-isopropyl-5H-pyrrolo[3,4-d]pyrimidin-7(6H)-one]
1700	CC(=O)N1CCN(c2nc(NC(C)c3ccc(C(C)(C)C#N)c(F)c3)c3c(n2)C(=O)N(C(C)C)C3)CC1 (stereo not drawn) [Example 163, 2-(4-(1-(2-(4-acetylpiperazin-1-yl)-6-isopropyl-7-oxo-6,7-dihydro-5H-pyrrolo[3,4-d]pyrimidin-4-ylamino)ethyl)-2-fluorophenyl)-2-methylpropanenitrile]
65	CCOc1ccc([C@@H](C)Nc2nc(N3CCN(C(C)=O)CC3)nc3c2CN(C(C)C)C3=O)cc1C [Example 167, (R)-2-(4-acetylpiperazin-1-yl)-4-(1-(4-ethoxy-3-methylphenyl)ethylamino)-6-isopropyl-5H-pyrrolo[3,4-d]pyrimidin-7(6H)-one]
80	CCOc1ccc([C@@H](C)Nc2nc(N3CCN(C(C)=O)CC3)nc3c2CN(C(C)C)C3=O)c(C)c1 [Example 168, (R)-2-(4-acetylpiperazin-1-yl)-4-(1-(4-ethoxy-2-methylphenyl)ethylamino)-6-isopropyl-5H-pyrrolo[3,4-d]pyrimidin-7(6H)-one]
96	CC(=O)N1CCN(c2nc(N[C@H](C)c3ccc(C)c(C)c3)c3c(n2)C(=O)N(C(C)C)C3)CC1 [Example 170, (R)-2-(4-acetylpiperazin-1-yl)-4-(1-(3,4-dimethylphenyl)ethylamino)-6-isopropyl-5H-pyrrolo[3,4-d]pyrimidin-7(6H)-one]
290	CC(=O)N1CCN(c2nc(N[C@H](C)c3ccc(Cl)c(C(F)(F)F)c3)c3c(n2)C(=O)N(C(C)C)C3)CC1 [Example 171, (R)-2-(4-acetylpiperazin-1-yl)-4-(1-(4-chloro-3-(trifluoromethyl)phenyl)ethylamino)-6-isopropyl-5H-pyrrolo[3,4-d]pyrimidin-7(6H)-one]
44	CC(=O)N1CCN(c2nc(N[C@H](C)c3ccc4c(c3)CCC4)c3c(n2)C(=O)N(C(C)C)C3)CC1 [Example 172, (R)-2-(4-acetylpiperazin-1-yl)-4-(1-(2,3-dihydro-1H-inden-5-yl)ethylamino)-6-isopropyl-5H-pyrrolo[3,4-d]pyrimidin-7(6H)-one]
18000	COc1ccccc1CC(C)(C)Nc1nc(N2CCN(C(C)=O)CC2)nc2c1CN(C(C)C)C2=O [Example 195, 2-(4-acetylpiperazin-1-yl)-6-isopropyl-4-(1-(2-methoxyphenyl)-2-methylpropan-2-ylamino)-5H-pyrrolo[3,4-d]pyrimidin-7(6H)-one]
1900	CC(=O)N1CCN(c2nc(NC(C)(C)Cc3ccccc3C)c3c(n2)C(=O)N(C(C)C)C3)CC1 [Example 197, 2-(4-acetylpiperazin-1-yl)-6-isopropyl-4-(2-methyl-1-o-tolylpropan-2-ylamino)-5H-pyrrolo[3,4-d]pyrimidin-7(6H)-one]
5300	CC(=O)N1CCN(c2nc(NCC3OCCc4ccccc43)c3c(n2)C(=O)N(C(C)C)C3)CC1 (stereo not drawn) [Example 205, 2-(4-acetylpiperazin-1-yl)-4-(isochoman-1-ylmethylamino)-6-isopropyl-5H-pyrrolo[3,4-d]pyrimidin-7(6H)-one]
5100	CC(C)N1Cc2c(NCc3cnc4ccccc4c3)nc(N3CCOCC3)nc2C1=O [Example 211, 6-isopropyl-2-morpholino-4-(quinolin-3-ylmethylamino)-5H-pyrrolo[3,4-d]pyrimidin-7(6H)-one]
1100	CC(C)N1Cc2c(NCc3cnc4ccccc4c3)nc(N3CCC(N(C)C)C3)nc2C1=O (stereo not drawn) [Example 213, 2-(3-dimethylaminopyrrolidin-1-yl)-6-isopropyl-4-(3-quinolylmethylamino)-5H-pyrrolo[3,4-d]pyrimidin-7-one]
2000	CC(C)N1Cc2c(NCc3cnc4ccccc4c3)nc(NCCS(C)(=O)=O)nc2C1=O [Example 215, 6-isopropyl-2-(2-methylsulfonylethylamino)-4-(3-quinolylmethylamino)-5H-pyrrolo[3,4-d]pyrimidin-7-one]
680	CC(C)N1Cc2c(NCc3cnc4ccccc4c3)nc(N3CCC(F)(F)C3)nc2C1=O [Example 216, 2-(3,3-difluoropyrrolidin-1-yl)-6-isopropyl-4-(3-quinolymethylamino)-5H-pyrrolo[3,4-d]pyrimidin-7-one]
5900	CC(C)N1Cc2c(NCc3cnc4ccccc4c3)nc(N(C)CC3CCCO3)nc2C1=O (stereo not drawn) [Example 217, 6-isopropyl-2-(methyl-(tetrahydrofuran-2-ylmethyl)amino)-4-(3-quinolylmethylamino)-5H-pyrrolo[3,4-d]pyrimidin-7-one]
9600	CC(C)N1Cc2c(NCc3cnc4ccccc4c3)nc(N(C)C)nc2C1=O [Example 220, 2-(dimethylamino)-6-(1-methylethyl)-4-[(quinolin-3-ylmethyl)amino]-5,6-dihydro-7H-pyrrolo[3,4-d]pyrimidin-7-one]
